We go through one compound from paper PMC2879341 (Chembiochem : a European journal of chemical biology, 2009).

The assay concerns the target T1, GilR (Streptomyces griseoflavus, UniProt Q7X2G7).
T1 sequence (Q7X2G7 1-498): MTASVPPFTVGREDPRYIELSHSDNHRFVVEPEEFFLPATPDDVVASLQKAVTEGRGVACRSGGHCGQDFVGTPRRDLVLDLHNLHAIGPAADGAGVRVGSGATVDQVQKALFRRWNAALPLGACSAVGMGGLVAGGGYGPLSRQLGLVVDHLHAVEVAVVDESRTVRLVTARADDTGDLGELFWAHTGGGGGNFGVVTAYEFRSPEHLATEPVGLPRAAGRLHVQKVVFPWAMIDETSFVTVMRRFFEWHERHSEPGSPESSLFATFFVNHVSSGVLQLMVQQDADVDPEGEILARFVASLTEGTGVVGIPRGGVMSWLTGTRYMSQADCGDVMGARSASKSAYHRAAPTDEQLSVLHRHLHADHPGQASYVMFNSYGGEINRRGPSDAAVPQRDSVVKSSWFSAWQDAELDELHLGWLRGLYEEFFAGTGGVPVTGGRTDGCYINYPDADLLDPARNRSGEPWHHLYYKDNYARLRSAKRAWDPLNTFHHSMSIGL
The experiment in a line: UV spectrum of purified protein. It counts as binding. The conditions noted are these: covalent.

As to `Cc1cc2nc3c(=O)[nH]c(=O)nc-3n(C[C@H](O)[C@H](O)[C@H](O)COP(=O)(O)OP(=O)(O)OC[C@H]3O[C@@H](n4cnc5c(N)ncnc54)[C@H](O)[C@@H]3O)c2cc1C` [FAD], the “UV spectrum of purified protein; further analysis in supplement” value is on record as “FAD in fact is covalently bound to the enzyme (see the Supporting Information)”.
